Measurements: publication PMC7954794, “Protein context shapes the specificity of SH3 domain-mediated interactions in vivo” (Nature Communications, 2021)

Columns and labels:
Type in all cases: cell-based, Saccharomyces cerevisiae
[1] = system: ABP1; assay: DHFR-PCA on solid medium, bait ABP1 (Fig. 1B); conditions: bait ABP1, label = prey; 2-4 replicates
Text: (§1) Supplement 41467_2021_21873_MOESM8_ESM.xlsx, sheet "Fig1B" | column: medsize; medrep; Ratio; Score

[2] = system: BBC1; assay: DHFR-PCA on solid medium, bait BBC1 (Fig. 1B); conditions: bait BBC1, label = prey; 2-4 replicates
Text: as §1

[3] = system: BEM1-1; assay: DHFR-PCA on solid medium, bait BEM1-1 (Fig. 1B); conditions: bait BEM1-1, label = prey; 2-8 replicates
Text: as §1

[4] = system: BEM1-2; assay: DHFR-PCA on solid medium, bait BEM1-2 (Fig. 1B); conditions: bait BEM1-2, label = prey; 2-8 replicates
Text: as §1

[5] = system: BOI1; assay: DHFR-PCA on solid medium, bait BOI1 (Fig. 1B); conditions: bait BOI1, label = prey
Text: as §1

[6] = system: BOI2; assay: DHFR-PCA on solid medium, bait BOI2 (Fig. 1B); conditions: bait BOI2, label = prey; 3-8 replicates
Text: as §1

[7] = system: BUD14; assay: DHFR-PCA on solid medium, bait BUD14 (Fig. 1B); conditions: bait BUD14, label = prey; 4 replicates
Text: as §1

[8] = system: BZZ1-1; assay: DHFR-PCA on solid medium, bait BZZ1-1 (Fig. 1B); conditions: bait BZZ1-1, label = prey; 4 replicates
Text: Supplement 41467_2021_21873_MOESM8_ESM.xlsx, sheet "Fig1B" | column: medsize; medrep; Score

Question: For YAL005C, which “medrep (log2 median colony size normalized to plate background, PCA score)” value [1] is on record?
Answer: Its value is 5.43.

Question: What about the “medrep (log2 median colony size normalized to plate background, PCA score)” value [2] of the same substance?
Answer: The value was 5.353.

Question: And the “medrep (log2 median colony size normalized to plate background, PCA score)” value [3]?
Answer: Its value is 4.321.

Question: And the “medrep (log2 median colony size normalized to plate background, PCA score)” value [4]?
Answer: Its value is 4.321.

Question: What about the “medrep (log2 median colony size normalized to plate background, PCA score)” value ([5]; 3-8 replicates) of the same substance?
Answer: Its value is 3.321.

Question: And the “Ratio (SH3-deleted/WT medrep)” value ([5]; only significant differences showed, PPIs completely lost have a ratio of 0.1 and the gained PPIs 2.5)?
Answer: The value was 1.412.

Question: What about the “medrep (log2 median colony size normalized to plate background, PCA score)” value [6] of the same substance?
Answer: Its value is 4.382.

Question: And the “medrep (log2 median colony size normalized to plate background, PCA score)” value [7]?
Answer: Its value is 4.297.

Question: What about the “medrep (log2 median colony size normalized to plate background, PCA score)” value [8] of the same substance?
Answer: The value was 4.381.
